Test results: patent US20090326064A1, “Pesticidal composition” (priority 2006, published 2009)

Assays:
Type in all cases: physicochemical
[1] = Stability in general-use solvents; conditions: such as acidic or alkaline aqueous solutions
Vapor pressure = conditions: at 25° C.
[2] = Stability under solar light

For CC=CC1C(C(=O)OCc2c(F)c(F)c(COC)c(F)c2F)C1(C)C (stereo not drawn) [Compound A, 2,3,5,6-tetrafluoro-4-methoxymethylbenzyl 1R-trans-3-(1-propenyl(E/Z=1/8))-2,2-dimethylcyclopropanecarboxylate], the “stability in various general-use solvents” value [1] was “stable”, the vapor pressure (Vapor pressure) was 1.96×10^−3 Pa and the “stability under solar light” value [2] was “very stable”.
